Measured values published in patent US20220306695A1, “COMPSTATIN ANALOGUES AND THEIR MEDICAL USES” (priority 2019, published 2022).
Starred links: 1 amine or outer side, 2 acyl side, 3 side chain; linkers in the order of their positions; H or OH if unused. Positions of bridges follow the written chain, without caps; N, C: chain ends. Non-standard residues stand in square brackets, D forms with d. Residues, ends and D or L forms follow the SMILES beside them. Groups on a side chain read outwards from the residue. *: point of attachment. Trp(1-Me) = Cn1cc(C[C@H](N)C(=O)O)c2ccccc21; Abu(4-yl) = O=C([C@H](CC[*:3])N[*:1])[*:2]; C18 diacid = O=C(O)CCCCCCCCCCCCCCCCC(=O)*; C16 diacid = O=C(O)CCCCCCCCCCCCCCC(=O)*; γGlu = O=C(O)[C@H](CCC(=O)[*:2])N[*:1]; AEEA = NCCOCCOCC(=O)O; Sar = CNCC(=O)O

These compounds were tested on classical complement pathway (assay: In vitro haemolysis assay (inhibition of classical complement pathway)). Settings: Table 3; human serum, sensitized sheep red blood cells; read-out: IC50[nM], in vitro analysis of inhibition of hemolysis.
Type: cell-based, human
In short: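 Serially diluted compound (9 points) was preincubated 15 min at room temperature with diluted human serum, titrated per batch to give 70-90% maximal haemolysis, in Tris/casein buffer pH 7.4 with Mg2+/Ca2+. Antibody-sensitized sheep erythrocytes were then added for 30 min at 37° C, and the reaction was stopped with EDTA. Haemolysis was read at A405, with IC50 from 4PL fit.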

Row | SMILES | IC50
1 | CC[C@H](C)[C@H](NC(=O)CNC(=O)[C@H](CCCCN)NC(=O)[C@H](CCC(=O)O)NC(C)=O)C(=O)N[C@H]1CSSC[C@@H](C(=O)N[C@H](C(=O)N[C@@H](CCC(=O)O)C(=O)N[C@@H](CCCCN)C(=O)N2CCC[C@H]2C(N)=O)[C@@H](C)O)NC(=O)[C@H](CCCNC(=N)N)NC(=O)[C@H](Cc2c[nH]cn2)NC(=O)[C@H](CCC(=O)O)NC(=O)CNC(=O)[C@H](Cc2c[nH]c3ccccc23)NC(=O)[C@H](CC(=O)O)NC(=O)[C@H](CCC(N)=O)NC(=O)[C@H](Cc2c[nH]c3ccccc23)NC(=O)[C@H]([C@@H](C)CC)NC1=O [Compound 38] (Ac-EKGICIWQDWGEHRCTEKP-NH2; disulfide 5-15) | < 250 nM
2 | CC[C@H](C)[C@H](NC(=O)[C@H](C)NC(=O)[C@H](CO)NC(=O)CNC(=O)[C@H](CCCCNC(=O)COCCOCCNC(=O)COCCOCCNC(=O)CC[C@H](NC(=O)CCCCCCCCCCCCCCC(=O)O)C(=O)O)NC(C)=O)C(=O)N[C@H]1CSSC[C@@H](C(=O)N[C@H](C(=O)N[C@@H](CCC(=O)O)C(=O)NCC(=O)N[C@@H](CCC(=O)O)C(N)=O)[C@@H](C)O)NC(=O)[C@H](CCCNC(=N)N)NC(=O)[C@H](Cc2c[nH]cn2)NC(=O)[C@H](CCC(=O)O)NC(=O)CNC(=O)[C@H](Cc2c[nH]c3ccccc23)NC(=O)[C@H](CC(=O)O)NC(=O)[C@H](CCC(N)=O)NC(=O)[C@H](Cc2c[nH]c3ccccc23)NC(=O)[C@H]([C@@H](C)CC)NC1=O [Compound 100] (Ac-K([AEEA-AEEA-γGlu-C16 diacid])GSAICIWQDWGEHRCTEGE-NH2; disulfide 6-16) | < 500 nM
3 | CC[C@H](C)[C@@H]1NC(=O)[C@@H](NC(=O)[C@H](Cc2ccccc2)NC(=O)[C@H](CCC(=O)O)NC(C)=O)CSSC[C@@H](C(=O)N[C@@H](CCC(=O)O)C(=O)NCC(=O)N[C@@H](CCC(=O)O)C(=O)N[C@@H](CCCCNC(=O)CC[C@H](NC(=O)CNC(=O)CC[C@H](NC(=O)CCCCCCCCCCCCCCCCC(=O)O)C(=O)O)C(=O)O)C(N)=O)NC(=O)[C@H](CCCNC(=N)N)NC(=O)[C@H](Cc2c[nH]cn2)NC(=O)[C@H](CCC(=O)O)NC(=O)CNC(=O)[C@H](Cc2c[nH]c3ccccc23)NC(=O)[C@H](CC(=O)O)NC(=O)[C@H](CCC(N)=O)NC(=O)[C@H](Cc2cn(C)c3ccccc23)NC1=O [Compound 134] (Ac-EFCI[Trp(1-Me)]QDWGEHRCEGEK([γGlu-Gly-γGlu-C18 diacid])-NH2; disulfide 3-13) | < 100 nM
4 | CC[C@H](C)[C@@H]1NC(=O)[C@@H](NC(=O)[C@H](Cc2ccccc2)NC(=O)[C@H](CCC(=O)O)NC(C)=O)CSCC[C@@H](C(=O)N(C)CC(=O)N[C@@H](CCC(=O)O)C(=O)N[C@@H](C)C(=O)NCCOCCOCC(=O)NCCOCCOCC(=O)N[C@@H](CCCCNC(=O)CC[C@H](NC(=O)CNC(=O)CC[C@H](NC(=O)CCCCCCCCCCCCCCCCC(=O)O)C(=O)O)C(=O)O)C(N)=O)NC(=O)[C@H](CCCNC(=N)N)NC(=O)[C@H](Cc2c[nH]cn2)NC(=O)[C@H](CCC(=O)O)NC(=O)CNC(=O)[C@H](Cc2c[nH]c3ccccc23)NC(=O)[C@H](CCC(=O)O)NC(=O)[C@H](CCC(N)=O)NC(=O)[C@H](Cc2cn(C)c3ccccc23)NC1=O [Compound 158, Ac-EFA(1)I[1-Me-Trp]QEWGEHRhC(1)[Sar]EA[Peg3][Peg3]-K([17-carboxy-heptadecanoyl][γGlu]G[γGlu])-NH2] (Ac-EFCI[Trp(1-Me)]QEWGEHR[Abu(4-yl)][Sar]EA[AEEA][AEEA]K([γGlu-Gly-γGlu-C18 diacid])-NH2; thioether 3-13) | < 250 nM
5 | CC[C@H](C)[C@@H]1NC(=O)[C@@H](NC(=O)[C@H](Cc2ccccc2)NC(=O)[C@H](CCC(=O)O)NC(=O)[C@H](CO)NC(C)=O)CSCC[C@@H](C(=O)N(C)CC(=O)N[C@@H](CCC(=O)O)C(=O)NCC(=O)N[C@@H](C)C(=O)N[C@@H](CCCCNC(=O)COCCOCCNC(=O)CC[C@H](NC(=O)COCCOCCNC(=O)CNC(=O)CC[C@H](NC(=O)CCCCCCCCCCCCCCCCC(=O)O)C(=O)O)C(=O)O)C(N)=O)NC(=O)[C@H](CCCNC(=N)N)NC(=O)[C@H](Cc2c[nH]cn2)NC(=O)[C@H](CCC(=O)O)NC(=O)CNC(=O)[C@H](Cc2c[nH]c3ccccc23)NC(=O)[C@H](CC(=O)O)NC(=O)[C@H](CCC(N)=O)NC(=O)[C@H](Cc2cn(C)c3ccccc23)NC1=O [Compound 154, Ac-SEFA(1)I[1-Me-Trp]QDWGEHRhC(1)[Sar]EGA-K([17-carboxy-heptadecanoyl][γGlu]G[Peg3][γGlu][Peg3])-NH2] (Ac-SEFCI[Trp(1-Me)]QDWGEHR[Abu(4-yl)][Sar]EGAK([AEEA-γGlu-AEEA-Gly-γGlu-C18 diacid])-NH2; thioether 4-14) | < 100 nM
6 | CC[C@H](C)[C@@H]1NC(=O)[C@@H](NC(=O)[C@H](Cc2ccccc2)NC(=O)[C@H](CCC(=O)O)NC(=O)[C@H](CO)NC(C)=O)CSSC[C@@H](C(=O)N[C@H](C(=O)N[C@@H](CCC(=O)O)C(=O)NCC(=O)N[C@@H](CCC(=O)O)C(=O)NCC(=O)NCC(=O)NCC(=O)N[C@@H](CCCCNC(=O)CC[C@H](NC(=O)CNC(=O)CC[C@H](NC(=O)CCCCCCCCCCCCCCCCC(=O)O)C(=O)O)C(=O)O)C(N)=O)[C@@H](C)O)NC(=O)[C@H](CCCNC(=N)N)NC(=O)[C@H](Cc2c[nH]cn2)NC(=O)[C@H](CCC(=O)O)NC(=O)CNC(=O)[C@H](Cc2c[nH]c3ccccc23)NC(=O)[C@H](CC(=O)O)NC(=O)[C@H](CCC(N)=O)NC(=O)[C@H](Cc2cn(C)c3ccccc23)NC1=O [Compound 130] (Ac-SEFCI[Trp(1-Me)]QDWGEHRCTEGEGGGK([γGlu-Gly-γGlu-C18 diacid])-NH2; disulfide 4-14) | < 100 nM
7 | CC[C@H](C)[C@H](NC(=O)[C@H](C)NC(=O)[C@H](CO)NC(=O)[C@H](CO)NC(=O)[C@H](CCC(=O)O)NC(=O)CCCCCCCCCCCCCCC(=O)O)C(=O)N[C@H]1CSSC[C@@H](C(=O)N[C@H](C(=O)N[C@@H](CCC(=O)O)C(=O)NCC(=O)N[C@@H](CCC(=O)O)C(N)=O)[C@@H](C)O)NC(=O)[C@H](CCCNC(=N)N)NC(=O)[C@H](Cc2c[nH]cn2)NC(=O)[C@H](CCC(=O)O)NC(=O)CNC(=O)[C@H](Cc2c[nH]c3ccccc23)NC(=O)[C@H](CC(=O)O)NC(=O)[C@H](CCC(N)=O)NC(=O)[C@H](Cc2c[nH]c3ccccc23)NC(=O)[C@H]([C@@H](C)CC)NC1=O [Compound 99] ({C16 diacid}-ESSAICIWQDWGEHRCTEGE-NH2; disulfide 6-16) | < 250 nM
8 | CC[C@H](C)[C@@H]1NC(=O)[C@@H](NC(=O)[C@H](Cc2ccccc2)NC(=O)[C@H](CCC(=O)O)NC(=O)[C@H](CO)NC(C)=O)CSCC[C@@H](C(=O)N[C@H](C(=O)N[C@@H](CCC(=O)O)C(=O)NCC(=O)N[C@@H](CCC(=O)O)C(=O)NCC(=O)NCC(=O)NCC(=O)N[C@@H](CCCCNC(=O)CC[C@H](NC(=O)CNC(=O)CC[C@H](NC(=O)CCCCCCCCCCCCCCCCC(=O)O)C(=O)O)C(=O)O)C(N)=O)[C@@H](C)O)NC(=O)[C@H](CCCNC(=N)N)NC(=O)[C@H](Cc2c[nH]cn2)NC(=O)[C@H](CCC(=O)O)NC(=O)CNC(=O)[C@H](Cc2c[nH]c3ccccc23)NC(=O)[C@H](CC(=O)O)NC(=O)[C@H](CCC(N)=O)NC(=O)[C@H](Cc2cn(C)c3ccccc23)NC1=O [Compound 157, Ac-SEFA(1)I[1-Me-Trp]QDWGEHRhC(1)TEGEGGG-K([17-carboxy-heptadecanoyl][γGlu]G[γGlu])-NH2] (Ac-SEFCI[Trp(1-Me)]QDWGEHR[Abu(4-yl)]TEGEGGGK([γGlu-Gly-γGlu-C18 diacid])-NH2; thioether 4-14) | < 100 nM
